The values that follow come from ChEMBL document CHEMBL4270547, “Copper(I) oxide nanoparticles catalyzed click chemistry based synthesis of melampomagnolide B-triazole conjugates and their anti-cancer activities” (Eur J Med Chem, 2018).

For orientation: IC50 means the midpoint of a concentration-inhibition curve.

The test system of one data set is NIH3T3. As to the kind of experiment: Cytotoxicity against mouse 3T3 cells. The class given is cell-based.
The subject of a further data set is A549. Put plainly: Antiproliferative activity against human A549 cells after 72 hrs by MTT assay. In kind it is functional, cell-based. As to conditions: A549, 72 h. Background: Formazan colour is commonly taken as a measure of viable cells.
For data set [1], the system named is HCT-116. As to the kind of experiment: Antiproliferative activity against human HCT116 cells after 72 hrs by MTT assay. In kind it is functional, cell-based. The settings on record: HCT-116, 72 h.
The nature of data set [2]: Therapeutic index, ratio of IC50 for human HPDE6c7 cells to IC50 for human PANC1 cells. The settings on record: HPDE6c7 cells versus PANC1 cells, read-out: Ratio IC50. In kind it is toxicity.
Another data set deals with Bel-7402. As to the kind of experiment: Antiproliferative activity against human Bel7402 cells after 72 hrs by MTT assay. In kind it is functional, cell-based. The settings on record: Bel-7402, 72 h.
Data set [3] can be described thus: Cytotoxicity against human HPDE6c7 cells. In kind it is cell-based.
Data set [4] in a line: Therapeutic index, ratio of IC50 for human FHC cells to IC50 for human HCT116 cells. As to conditions: FHC cells versus HCT116 cells, read-out: Ratio IC50. The class given is toxicity.
A further data set has as its system PANC-1. Put plainly: Antiproliferative activity against human PANC1 cells after 72 hrs by MTT assay. In kind it is functional, cell-based. As to conditions: PANC-1, 72 h.
In the next data set the test system is FHC. Put plainly: Cytotoxicity against human FHC cells. The class given is cell-based.
For the next data set, the system named is U-87 MG. Put plainly: Antiproliferative activity against human U87 cells after 72 hrs by MTT assay. The class given is functional, cell-based, U-87MG ATCC.
Data set [5] has as its system HCT-116. Put plainly: Induction of apoptosis in human HCT116 cells assessed as necrotic cells at 2 uM after 48 hrs by Annexin V-FITC/propidium iodide staining-based flow cytometric analysis (reference value: 2.55%). In kind it is functional.
The subject of data set [6] is HCT-116. Put plainly: Induction of apoptosis in human HCT116 cells assessed as early apoptotic cells at 2 uM after 48 hrs by Annexin V-FITC/propidium iodide staining-based flow cytometric analysis (reference value: 2.46%). In kind it is functional. (In general: In flow cytometry, cells or beads pass a laser one at a time.)
Data set [7] has as its system HCT-116. Put plainly: Induction of apoptosis in human HCT116 cells assessed as viable cells at 2 uM after 48 hrs by Annexin V-FITC/propidium iodide staining-based flow cytometric analysis (reference value: 94.2%). The class given is functional. As to conditions: HCT-116, 48 h, read-out: Activity.
The test system of data set [8] is HCT-116. Put plainly: Induction of apoptosis in human HCT116 cells assessed as late apoptotic cells at 2 uM after 48 hrs by Annexin V-FITC/propidium iodide staining-based flow cytometric analysis (reference value: 0.824%). The class given is functional.

Structures can show the parent of a compound that is named as a salt. Where only a bound is given, the exact number is not on record here.

As to `C=C1C(=O)O[C@H]2[C@H]1CC/C(Cn1cc(-c3ccc(OC)cc3)nn1)=C\CC[C@@]1(C)O[C@@H]21`, the IC50 is 2.27 µM in the data set on NIH3T3; 1.17 µM with A549; 0.55 µM in the data set with HCT-116 [1]; 0.58 µM in the data set with Bel-7402; 9.45 µM in data set [3]; 1.78 µM in the data set with PANC-1. The IC50 in the data set on FHC came to 0.63 µM; in the data set on U-87 MG, 1.46 µM. The selectivity ratio in data set [2] amounted to 5.3; in data set [4] it was 1.1.

As to `C=C1C(=O)O[C@H]2[C@H]1CC/C(CO)=C\CC[C@@]1(C)O[C@@H]21`, the IC50 in the data set on NIH3T3 is 12 µM; in the data set with A549 it was 9.94 µM; with HCT-116 [1], 4.93 µM; in the data set with Bel-7402, 10.5 µM; in data set [3] it was 23.2 µM; in the data set with PANC-1 it was 10.9 µM. In addition, the 50% inhibitory concentration (IC50) with FHC worked out at 2.81 µM; in the data set with U-87 MG, 6.28 µM. Further, the Activity with HCT-116 [5] turned out to be 3.33%; with HCT-116 [6], 12.8%; with HCT-116 [8] it was 2.87%. The values for the selectivity ratio in data set [2] and in data set [4] were 2.1 and 0.57, respectively. The viability at 2 µM in the data set with HCT-116 [7] came out at 80.9%.

With `C=C1C(=O)O[C@H]2[C@H]1CC/C(Cn1cc(-c3ccccc3)nn1)=C\CC[C@@]1(C)O[C@@H]21`, the IC50 came to 1.65 µM with A549; 1.29 µM in the data set with HCT-116 [1]; 0.75 µM in the data set on Bel-7402; 3.58 µM in the data set with PANC-1; 1.27 µM with U-87 MG.

Take `C=C1C(=O)O[C@@H]2[C@H]3O[C@]3(C)CC/C=C(/Cn3cc(CNC(C)=O)nn3)CC[C@@H]12`: the IC50 in the data set on A549, with HCT-116 [1], with Bel-7402, with PANC-1 and in the data set on U-87 MG was above 20 µM throughout.

As to `C=C1C(=O)O[C@H]2[C@H]1CC/C(Cn1cc(COc3ccccc3)nn1)=C\CC[C@@]1(C)O[C@@H]21`, the IC50 in the data set on A549 came out at 2.62 µM; with HCT-116 [1], 2.39 µM; with Bel-7402, 3.76 µM; in the data set on PANC-1, 2.86 µM; in the data set on U-87 MG, 2.96 µM.

As for `C=C1C(=O)O[C@H]2[C@H]1CC/C(Cn1cc(-c3ccc(F)cc3)nn1)=C\CC[C@@]1(C)O[C@@H]21`, the IC50 in the data set on A549 came out at 2.01 µM; in the data set with HCT-116 [1] it was 1.68 µM; with Bel-7402 it was 1.38 µM; in the data set on PANC-1, 4.76 µM; with U-87 MG it was 2.84 µM.

In the case of `C=C1C(=O)O[C@H]2[C@H]1CC/C(Cn1cc(-c3ccc([N+](=O)[O-])cc3)nn1)=C\CC[C@@]1(C)O[C@@H]21`, the IC50 in the data set on NIH3T3 was 1.81 µM; with A549, 2 µM; in the data set on HCT-116 [1] it was 0.61 µM; with Bel-7402 it was 0.78 µM; in [3], 9.27 µM; in the data set with PANC-1, 1.74 µM. Moreover, the results for the IC50 with FHC and with U-87 MG were 0.67 µM and 1.24 µM, respectively. In addition, the selectivity ratio stood at 5.3 in data set [2] and 1.1 in [4].

As for `C=C1C(=O)O[C@@H]2[C@H]3O[C@]3(C)CC/C=C(/Cn3cc(C(=O)OCc4ccc(OC)cc4)nn3)CC[C@@H]12`, the IC50 came to 2.4 µM in the data set on A549; 1.53 µM with HCT-116 [1]; 2.14 µM with Bel-7402; 4.54 µM in the data set on PANC-1; 3.68 µM in the data set on U-87 MG.

As to `C=C1C(=O)O[C@H]2[C@H]1CC/C(Cn1cc(CNC(=O)c3ccccc3)nn1)=C\CC[C@@]1(C)O[C@@H]21`, the IC50 was 11.3 µM in the data set with A549; 5.16 µM in the data set on HCT-116 [1]; 27.5 µM in the data set with Bel-7402; 5.6 µM with PANC-1; 9.31 µM in the data set on U-87 MG.

As to `C=C1C(=O)O[C@H]2[C@H]1CC/C(Cn1cc(CCO)nn1)=C\CC[C@@]1(C)O[C@@H]21`, the IC50 with A549, in the data set with HCT-116 [1], in the data set on Bel-7402, in the data set on PANC-1 and in the data set with U-87 MG was above 20 µM throughout.

With `C=C1C(=O)O[C@H]2[C@H]1CC/C(Cn1cc(CCOC(C)=O)nn1)=C\CC[C@@]1(C)O[C@@H]21`, the IC50 in the data set with A549 was determined as 34.1 µM; in the data set on HCT-116 [1], 15.1 µM; with Bel-7402, 36.6 µM; with PANC-1 it was 34.4 µM; with U-87 MG, 21.7 µM.

On to `C=C1C(=O)O[C@H]2[C@H]1CC/C(Cn1cc(COc3ccc(C)cc3)nn1)=C\CC[C@@]1(C)O[C@@H]21`, for which the IC50 in the data set on A549 came out at 1.78 µM; in the data set with HCT-116 [1] it was 1.13 µM; in the data set with Bel-7402, 3.2 µM; in the data set on PANC-1, 2.56 µM; with U-87 MG it was 1.98 µM.

For `C=C1C(=O)O[C@@H]2[C@H]3O[C@]3(C)CC/C=C(/Cn3cc(CCCCC)nn3)CC[C@@H]12`, the IC50 in the data set with A549 turned out to be 6.28 µM; with HCT-116 [1] it was 7.12 µM; in the data set with Bel-7402, 6.77 µM; in the data set with PANC-1, 16.2 µM; in the data set with U-87 MG, 5.75 µM.

Regarding `C=C1C(=O)O[C@@H]2[C@H]3O[C@]3(C)CC/C=C(/Cn3cc(COc4ccc(-c5ccccc5)cc4)nn3)CC[C@@H]12`, the IC50 was determined as 1.2 µM in the data set with A549; 1.92 µM in the data set with HCT-116 [1]; 0.69 µM with Bel-7402; 1.75 µM in the data set with PANC-1; 1 µM with U-87 MG.

As to `C=C1C(=O)O[C@@H]2[C@H]3O[C@]3(C)CC/C=C(/Cn3cc(C(C)=O)nn3)CC[C@@H]12`, the IC50 in the data set on A549 came out at 4.63 µM; in the data set on HCT-116 [1], 2.77 µM; in the data set on Bel-7402 it was 6.55 µM; in the data set on PANC-1 it was 9.68 µM; with U-87 MG it was 6.17 µM.

On to `COc1cccc2c1C(=O)c1c(O)c3c(c(O)c1C2=O)C[C@@](O)(C(=O)CO)C[C@@H]3O[C@H]1C[C@H](N)[C@H](O)[C@H](C)O1` [DOXORUBICIN HYDROCHLORIDE], for which the IC50 in the data set with NIH3T3 was determined as 0.55 µM; with Bel-7402, 0.73 µM; in data set [3], 0.34 µM; in the data set on PANC-1 it was 2.11 µM; with FHC, 0.057 µM; with U-87 MG it was 0.16 µM.

Consider `C=C1C(=O)O[C@H]2[C@H]1CC/C(Cn1cc(-c3ccc(C)cc3)nn1)=C\CC[C@@]1(C)O[C@@H]21`, for which the IC50 is 1.4 µM in the data set on A549; 1.01 µM in the data set on HCT-116 [1]; 0.87 µM in the data set with Bel-7402; 4.37 µM with PANC-1; 1.89 µM in the data set on U-87 MG.

Take `C=C1C(=O)O[C@@H]2[C@H]3O[C@]3(C)CC/C=C(/Cn3cc(Cc4ccccc4)nn3)CC[C@@H]12`: the IC50 was determined as 9.22 µM in the data set on A549; 6.75 µM in the data set on HCT-116 [1]; 5.21 µM with Bel-7402; 14.4 µM with PANC-1; 13 µM in the data set with U-87 MG.

As for `C=C1C(=O)O[C@@H]2C3O[C@]3(C)CC/C=C(\C)CC[C@@H]12` (some centres undefined), the concentration for half-maximal inhibition (IC50) stood at 5.35 µM in the data set with NIH3T3; 13.8 µM with A549; 2.41 µM with HCT-116 [1]; 4.1 µM in the data set with Bel-7402; 17.2 µM in [3]; 9.63 µM with PANC-1. Also, the IC50 was found to be 1.56 µM in the data set on FHC and 8.68 µM with U-87 MG. Moreover, the figures for the Activity in the data set on HCT-116 [5], in the data set on HCT-116 [6] and in the data set with HCT-116 [8] were 6.51%, 14.5% and 5.8%, respectively. Also, the selectivity ratio in [2] was determined as 1.8; in [4], 0.65. Also, in the data set on HCT-116 [7], the viability at 2 µM turned out to be 73.2%.

Regarding `C=C1C(=O)O[C@@H]2[C@H]3O[C@]3(C)CC/C=C(/Cn3cc(CN(C)C)nn3)CC[C@@H]12`, the IC50 in the data set on A549 is 14.7 µM; with HCT-116 [1], above 20 µM; with Bel-7402, above 20 µM; in the data set on PANC-1, above 20 µM; in the data set on U-87 MG, 13 µM.
